In patent US6410575B1, “Viral treatment” (The Procter & Gamble Company, priority 1999, dated 2002):
In brackets after ≈: the same amount, converted by molar mass. Several values for one entry are separate records, joined by “and”; a condition that tells them apart may be missing. Equal entries are not always repeated.

Key:
CEMROD = experiment: Toxicity values in the HIV-2 screening test; assay type: cell-based; set-up: Toxicity Values, sample / Toxicity Values, average: unit not given here
Description: (§1) Toxicity quantification involves the XTT-based evaluation. Assays were designed to characterize the long term effects of the compounds on virus production and to characterize the longer term effects of the compounds on virus production from chronically HIV infected cells.

HIV-1 cell line, CEMIIIB = experiment: Long term in vitro study, CEMIIIB; assay type: cell-based
Protocol: as §1
(§2) CEM-SS cells chronically infected with HIV isolate, for example SKI (CEM-SKI) are cultured in RPMI1640 tissue culture medium supplemented with 10% fetal bovine serum and antibiotics. […] CEM-SKI or other infected cells with no added drug are used as the control cells.
(§3) Cells are allowed to grow to a density of approximately 1×10^6 cells/ml and are then passaged at a 1:10 dilution. […] The drug concentration in the flask is then increased two-fold and the cells maintained as above.
(§4) The cell populations contain integrated copies of the HIV genome and constitutively produce HIV at relatively high levels or are latently infected and only produce virus after stimulation with phorbol esters, tumor necrosis factor or IL6(U1 and ACH2). Reductions in virus products were observed when quantifying supernatant reverse transcriptase activity.
The results with CEMIIIB cells was reported at weekly intervals.
The CEMIIIB is a viral strain of the CEMSS cell line.

Curvularia lunata = experiment: Anti-fungal activity, MIC (NCCLS M-27A based); assay type: cell-based
Protocol: It was active against Cryptococcus neoformans and Curvularia lunata. The cidal activity for the C. neoformans is high enough that it is clear […] against this yeast. This test was conducted using a method based upon NCCLS reference method M-27A published in 1997. Solvent, medium and growth controls were set-up with the tests. Once these were read to validate the test performance, the QC fungi were read to insure they had expected results. These steps validated the test system. DMSO was used as a drug-chemical solvent. […] The 90% cut-off is necessary for azoles, which are static and not cidal. The […] or cidal level, was determined by sub-culturing a sample from each tube showing no growth.

[1] = test system: U937RF, a protease resistant strain; experiment: Long term in vitro study, U937RF; assay type: cell-based, HIV
Protocol: as §1, §2, §3, §4
The results with U937RF cells were reported at weekly intervals.

NC(=S)Nc1nsc(-c2ccccc2)n1
Toxicity Values, average (CEMROD; 32 μg/ml): 0.509 | Toxicity Values, sample (CEMROD; 32 μg/ml): 0.518 and 0.491 and 0.517 | % cell control (CEMROD; 100 μg/ml): 9.8% | Toxicity Values, average (CEMROD; 100 μg/ml): 0.115 | Toxicity Values, sample (CEMROD; 100 μg/ml): 0.113 and 0.117 and 0.115 | virus production (supernatant reverse transcriptase activity) (HIV-1 cell line, CEMIIIB; 7 μg/ml, day 4): 4849 | virus production (supernatant reverse transcriptase activity) (HIV-1 cell line, CEMIIIB; 7 μg/ml, day 11): 6658 | virus production (supernatant reverse transcriptase activity) (HIV-1 cell line, CEMIIIB; 7 μg/ml, day 18): 7078 | virus production (supernatant reverse transcriptase activity) (HIV-1 cell line, CEMIIIB; 7 μg/ml, day 25): 5221 | virus production (supernatant reverse transcriptase activity) (HIV-1 cell line, CEMIIIB; 7 μg/ml, day 32): 5329 | virus production (supernatant reverse transcriptase activity) (HIV-1 cell line, CEMIIIB; 7 μg/ml, day 39): 7349 | virus production (supernatant reverse transcriptase activity) (HIV-1 cell line, CEMIIIB; 7 μg/ml, day 46): 11262 | virus production (supernatant reverse transcriptase activity) (HIV-1 cell line, CEMIIIB; 7 μg/ml, day 53): 11286 | virus production (supernatant reverse transcriptase activity) (HIV-1 cell line, CEMIIIB; 15 μg/ml, day 4): 5078 | virus production (supernatant reverse transcriptase activity) (HIV-1 cell line, CEMIIIB; 15 μg/ml, day 11): 5733 | virus production (supernatant reverse transcriptase activity) (HIV-1 cell line, CEMIIIB; 15 μg/ml, day 18): 6057 | virus production (supernatant reverse transcriptase activity) (HIV-1 cell line, CEMIIIB; 15 μg/ml, day 25): 4980 | virus production (supernatant reverse transcriptase activity) (HIV-1 cell line, CEMIIIB; 15 μg/ml, day 32): 4273 | virus production (supernatant reverse transcriptase activity) (HIV-1 cell line, CEMIIIB; 15 μg/ml, day 39): 6329 | virus production (supernatant reverse transcriptase activity) (HIV-1 cell line, CEMIIIB; 15 μg/ml, day 46): 10361 | virus production (supernatant reverse transcriptase activity) (HIV-1 cell line, CEMIIIB; 15 μg/ml, day 53): 9844 | virus production (supernatant reverse transcriptase activity) (HIV-1 cell line, CEMIIIB; 30 μg/ml, day 4): 5251 | virus production (supernatant reverse transcriptase activity) (HIV-1 cell line, CEMIIIB; 30 μg/ml, day 11): 6200 | virus production (supernatant reverse transcriptase activity) (HIV-1 cell line, CEMIIIB; 30 μg/ml, day 18): 6952 | virus production (supernatant reverse transcriptase activity) (HIV-1 cell line, CEMIIIB; 30 μg/ml, day 25): 4110 | virus production (supernatant reverse transcriptase activity) (HIV-1 cell line, CEMIIIB; 30 μg/ml, day 32): 3337 | virus production (supernatant reverse transcriptase activity) (HIV-1 cell line, CEMIIIB; 30 μg/ml, day 39): 4233 | virus production (supernatant reverse transcriptase activity) (HIV-1 cell line, CEMIIIB; 30 μg/ml, day 46): 9238 | virus production (supernatant reverse transcriptase activity) (HIV-1 cell line, CEMIIIB; 30 μg/ml, day 53): 3527 | anti-fungal activity in vitro (Curvularia lunata): active | MIC (Curvularia lunata; growth inhibited or reduced at least 90%, read-out: MIC): 0.03 µg/mL (≈ 0.127 µM) | virus production (supernatant reverse transcriptase activity) ([1]; 7 μg/ml, day 4): 1627 | virus production (supernatant reverse transcriptase activity) ([1]; 7 μg/ml, day 11): 1526 | virus production (supernatant reverse transcriptase activity) ([1]; 7 μg/ml, day 18): 4086 | virus production (supernatant reverse transcriptase activity) ([1]; 7 μg/ml, day 25): 5303 | virus production (supernatant reverse transcriptase activity) ([1]; 7 μg/ml, day 32): 4827 | virus production (supernatant reverse transcriptase activity) ([1]; 7 μg/ml, day 39): 6008 | virus production (supernatant reverse transcriptase activity) ([1]; 7 μg/ml, day 46): 3586 | virus production (supernatant reverse transcriptase activity) ([1]; 7 μg/ml, day 53): 5726 | virus production (supernatant reverse transcriptase activity) ([1]; 15 μg/ml, day 4): 1575 | virus production (supernatant reverse transcriptase activity) ([1]; 15 μg/ml, day 11): 1482 | virus production (supernatant reverse transcriptase activity) ([1]; 15 μg/ml, day 18): 3772 | virus production (supernatant reverse transcriptase activity) ([1]; 15 μg/ml, day 25): 2654 | virus production (supernatant reverse transcriptase activity) ([1]; 15 μg/ml, day 32): 1594 | virus production (supernatant reverse transcriptase activity) ([1]; 15 μg/ml, day 39): 3538 | virus production (supernatant reverse transcriptase activity) ([1]; 15 μg/ml, day 46): 2426 | virus production (supernatant reverse transcriptase activity) ([1]; 15 μg/ml, day 53): 3976 | virus production (supernatant reverse transcriptase activity) ([1]; 30 μg/ml, day 4): 1751 | virus production (supernatant reverse transcriptase activity) ([1]; 30 μg/ml, day 11): 1237 | virus production (supernatant reverse transcriptase activity) ([1]; 30 μg/ml, day 18): 2892 | virus production (supernatant reverse transcriptase activity) ([1]; 30 μg/ml, day 25): 735 | virus production (supernatant reverse transcriptase activity) ([1]; 30 μg/ml, day 32): 1035 | virus production (supernatant reverse transcriptase activity) ([1]; 30 μg/ml, day 39): 1265 | virus production (supernatant reverse transcriptase activity) ([1]; 30 μg/ml, day 46): 1358 | virus production (supernatant reverse transcriptase activity) ([1]; 30 μg/ml, day 53): 2333
